Tests used:
[1] = test system: Aβ fibrils; settings: non-Cu binding blocking agent; cited from earlier work
[2] = pH-spectrophotometric titration, stability constants of Cu^2+ complexes; assay type: physicochemical; settings: for Calculated pCu (−log[Cu]free): [Cu^2+]tot = [chelator]tot = 50 μM
Experimental: Similar spectrophotometric titrations were performed to determine the stability constants and solution speciation of Cu^2+ with L3-L6. Stability constants were determined by titrating solutions of the compounds and equimolar amounts of Cu(ClO4)2.6H2O (50 μM or 0.5 mM) with small aliquots of 0.1 M NaOH at room temperature. At least 30 UV-vis spectra were collected in the pH 3-11 range (FIG. 2). The acidity and stability constants were calculated using the HypSpec computer program (Protonic Software, UK, Gans, P.; Sabatini, A.; Vacca, A. Ann. Chim. 1999, 45). Speciation plots of the compounds and their metal complexes were calculated using the program HySS2009 (Protonic Software, UK) (Alderighi, L. Coord. Chem. Rev. 1999, 184, 311). […] The data obtained for the Cu complex of compound L7 could not be fit satisfactorily using a reasonable model, most likely due to a multinuclear complex formation, as observed by X-ray crystallography.

[3] = target: T1, Aβ40 fibrils (Homo sapiens, UniProt P05067); experiment: Direct fluorescence assay with Aβ fibrils; assay type: binding; settings: [Aβ]=5 μM, λex/λem=350/450 nm; read-out: Kd, Aβ fibrils, compound fluorescence
T1 construct: purchased Keck Biotechnology Resource Laboratory, Yale University
Experimental: (§1) Aβ monomeric films were prepared by dissolving commercial Aβ42 (or Aβ40 for Aβ fibril binding studies) peptide (Keck Biotechnology Resource Laboratory, Yale University) in hexafluoroisopropanol (HFIP) (1 mM) and incubating for 1 hour at room temperature (Klein, W. L. Neurochemistry International 2002, 41, 345). The solution was then aliquoted out and evaporated overnight. The aliquots were vacuum centrifuged and the resulting monomeric films stored at −80° C. Aβ fibrils were generated by dissolving monomeric Aβ films in dimethyl sulfoxide (DMSO), diluting into the appropriate buffer, and incubating for 24 hours at 37° C. with continuous agitation (final DMSO concentration was <2%). […]
(§2) All fluorescence measurements were performed using a SpectraMax M2e plate reader (Molecular Devices). For ThT fluorescence studies, samples were diluted to a final concentration of 2.5 μM Aβ in phosphate buffered saline (PBS) solution containing 10 μM ThT and the fluorescence measured at 485 nm (λex=435 nm). For Aβ fibril binding studies, a 5 μM Aβ fibril solution was titrated with small amounts of compound and their fluorescence intensity measured (λex/λem=350/450 nm). For ThT competition assays, a 2 μM Aβ fibril solution with 1 μM ThT was titrated with small amounts of compound and the ThT fluorescence measured (λex/λem=435/485 nm). […]

[4] = UV-vis pH titration, acidity constant determination; assay type: physicochemical; settings: 50 μM, 0.1 M NaCl, room temperature, methanol-water (methanol ≤20% v:v); for [HL1]/[L1]^− (pKa4): assigned to the phenol group
Experimental: UV-vis pH titrations were employed to determine the acidity constants of compounds L3-L7 and the stability constants of their Cu^2+ complexes. For acidity constants, solutions of the bifunctional compound (50 μM, 0.1 M NaCl, pH 3) were titrated with small aliquots of 0.1 M NaOH at room temperature. At least 30 UV-vis spectra were collected in the pH 3-11 range (FIG. 1).

[5] = Biodistribution and brain uptake of ^64Cu-radiolabeled compounds; assay type: in vivo, wild type CD-1 female mice; settings: ^64Cu complexes, tail vein injection, 2, 60 and 240 min
Experimental: Biodistribution studies were conducted in wild type CD-1 female mice (Charles River Laboratories) of age 5-7 weeks weighing 25.4±1.4 g. The injection dose was prepared by diluting to a 90% saline solution. The uptake of compounds was evaluated in mice (L3 and L6, n=7; L4, L5, and L7, n=3) that were injected via the tail vein with 0.22-0.37 MBq (6-10 μCi) of each compound per animal in 100 μL saline. After each time points (2, 60, and 240 min), mice were anesthetized with 1-2% isoflurane and sacrificed by cervical dislocation. Brain, blood, kidney, liver and other organs of interest were harvested and amount of radioactivity in each organ was counted on a gamma counter containing a NaI crystal. The data was corrected for radioactive decay and percent injected dose per gram (% ID/g) of tissue was calculated. All samples were calibrated against a known standard. Quantitative data were processed by Prism 6 (GraphPad Software, v 6.03, La Jolla, Calif.) and expressed as Mean±SEM. Statistical analysis performed using one-way analysis of variance and Student's t test. Differences at the 95% confidence level (p<0.05) were considered statistically significant.

[6] = target: T2, ThT-bound Aβ40 fibrils (Homo sapiens, UniProt P05067); experiment: ThT fluorescence competition assay; assay type: binding; settings: [Aβ]=2 μM, [ThT]=1 μM
T2 construct: purchased Keck Biotechnology Resource Laboratory, Yale University
Experimental: as §1, §2

[7] = test system: Aβ deposits; settings: cited from earlier work
[8] = Cu^2+ complex, equimolar Cu(ClO4)2, room temperature

T2 sequence (P05067 672-711 limits assumed): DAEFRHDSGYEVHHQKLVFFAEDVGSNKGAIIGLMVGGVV
T1 sequence (P05067 672-711 limits assumed): as above

| Compound | Stability constant, M^2+ + L^− = [ML]^+ [2, 8] | [H2L1]^+/[HL1] (pKa3) [4] | [H3L1]^+2/[H2L1]^+ (pKa2) [4] | [H4L1]^3+/[H3L1]^2+ (pKa1) [4] | [HL1]/[L1]^− (pKa4) [4] | Stability constant, M^2+ + HL = [MHL]^+2 [2, 8] | Brain uptake and wash out [5] | other results |
| --- | --- | --- | --- | --- | --- | --- | --- | --- |
| Oc1cccc2scnc12 [BTZ, 4-hydroxybenzothiazole] | – | – | – | – | – | – | – | Affinity for Aβ fibrils [1]: nanomolar affinity |
| O=C(O)CN(CCN(CC(=O)O)CC(=O)O)CCN(CC(=O)O)CC(=O)O [DTPA, diethylene triamine pentaacetic acid, reference compound] | – | – | – | – | – | – | – | Calculated pCu (−log[Cu]free) ([2]; pH 6.6): 9.3; Calculated pCu (−log[Cu]free) ([2]; pH 7.4): 10.1 |
| COc1cc(-c2nc3ccccc3s2)cc(CN2CCN(C)CCN(C)CC2)c1O [L3] | 31.96(60) | 8.27 | 6.35 | 3.78 | 9.34 | – | – | Stability constant, [ML(H2O)]^+1 = [ML(OH)] + H^+ [2, 8]: 10.14(60); Kd [3]: ~575 nM |
| COc1cc(-c2nc3ccccc3s2)cc(CN2Cc3cccc(n3)CNCc3cccc(n3)C2)c1O [L4] | 27.093 | 9.34 | 7.84 | 5.14 | 10.14 | 2.881 | higher initial brain uptake at 2 min, followed by rapid wash out | – |
| COc1cc(-c2nc3ccccc3s2)cc(CN2Cc3cccc(n3)CN(C)Cc3cccc(n3)C2)c1O [L5] | 27.224 | 8.02 | 5.61 | 4.80 | 9.60 | 4.008 | higher initial brain uptake at 2 min, followed by rapid wash out | – |
| COc1cc(-c2nc3ccccc3s2)cc(CN2Cc3cccc(n3)CN(CC(=O)O)Cc3cccc(n3)C2)c1O [L6] | 30.098 | 8.71 | 6.93 | 4.57 | 9.98 | 3.012 | higher initial brain uptake at 2 min, followed by rapid wash out | Ki [6]: 325 ± 40 nM |
| COc1cc(-c2nc3ccccc3s2)cc(CN2Cc3cccc(n3)CN(Cc3cc(-c4nc5ccccc5s4)cc(OC)c3O)Cc3cccc(n3)C2)c1O [L7] | – | 8.22 | 7.39 | 4.35 | 10.65 | – | higher initial brain uptake at 2 min, followed by rapid wash out | – |
| COc1ccc(/C=C/c2ccc(O)cc2)cc1OC [L8] | – | – | – | – | – | – | – | Ki [6]: 66 ± 20 nM |
| [11CH3]Nc1ccc(-c2nc3ccc(O)cc3s2)cc1 [^11C-PiB] | – | – | – | – | – | – | – | Binding to soluble amyloid, NFTs, Lewy bodies ([7]; at nanomolar concentrations): does not bind; Binding to Aβ deposits ([7]; in vitro autoradiography): binds to aggregated, fibrillar Aβ deposits |

Reference: patent US9422286B2, “Metal-binding bifunctional compounds as diagnostic agents for Alzheimer's disease” (Washington University, priority 2014, dated 2016)
